Test results taken from patent US20260263429A1, “INHIBITORS OF CA 2+/CALMODULIN-DEPENDENT PROTEIN KINASE II (CAMKII) THAT DO NOT INHIBIT LONG-TERM POTENTIATION (LTP) INDUCTION AND THERAPEUTIC USES THEREOF” (The Regents of the University of Colorado, A Body Corporate, priority 2023, published 2026).

Legend:
Assay in all cases: Kinase panel, residual kinase activity at 1 μM inhibitor
Type in all cases: biochemical
[1] = target: Ret(h) (Homo sapiens, UniProt P07949)
Description: (§1) In this table, residual kinase activity in the presence of 1 μM of each inhibitor is illustrated as a percentage of maximal activity.

[2] = target: SAPK2a(h) (Homo sapiens, UniProt Q16539)
Description: as §1

[3] = target: MAPK1(h) (Homo sapiens, UniProt P27361)
Chain of MAPK1(h) (P27361 whole entry): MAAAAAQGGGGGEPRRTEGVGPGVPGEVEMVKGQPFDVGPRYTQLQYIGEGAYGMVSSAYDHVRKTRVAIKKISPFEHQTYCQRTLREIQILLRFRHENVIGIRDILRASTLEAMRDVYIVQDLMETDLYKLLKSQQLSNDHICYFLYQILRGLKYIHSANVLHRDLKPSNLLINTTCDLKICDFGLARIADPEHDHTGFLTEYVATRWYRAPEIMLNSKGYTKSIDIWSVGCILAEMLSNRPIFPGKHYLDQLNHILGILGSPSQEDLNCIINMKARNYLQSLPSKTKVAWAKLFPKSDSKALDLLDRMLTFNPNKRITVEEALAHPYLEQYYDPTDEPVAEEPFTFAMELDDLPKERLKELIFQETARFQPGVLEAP
Description: as §1

[4] = target: GSK3β(h) (Homo sapiens, UniProt P49841)
Description: as §1

[5] = target: CaMKIIγ(h) (Homo sapiens, UniProt Q13555)
Description: as §1

[6] = target: CDK5/p35(h) (Homo sapiens, UniProt Q00535)
Chain of CDK5/p35(h) (Q00535 whole entry): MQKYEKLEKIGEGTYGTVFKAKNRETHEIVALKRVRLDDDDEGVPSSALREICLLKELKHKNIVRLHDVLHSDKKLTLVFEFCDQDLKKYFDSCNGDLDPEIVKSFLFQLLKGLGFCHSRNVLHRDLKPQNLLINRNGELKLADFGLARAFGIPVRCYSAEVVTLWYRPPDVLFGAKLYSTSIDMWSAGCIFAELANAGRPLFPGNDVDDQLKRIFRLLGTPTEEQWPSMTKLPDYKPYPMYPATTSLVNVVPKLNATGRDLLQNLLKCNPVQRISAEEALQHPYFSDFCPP
Chain of CDK5/p35(h) (Q15078 whole entry partner): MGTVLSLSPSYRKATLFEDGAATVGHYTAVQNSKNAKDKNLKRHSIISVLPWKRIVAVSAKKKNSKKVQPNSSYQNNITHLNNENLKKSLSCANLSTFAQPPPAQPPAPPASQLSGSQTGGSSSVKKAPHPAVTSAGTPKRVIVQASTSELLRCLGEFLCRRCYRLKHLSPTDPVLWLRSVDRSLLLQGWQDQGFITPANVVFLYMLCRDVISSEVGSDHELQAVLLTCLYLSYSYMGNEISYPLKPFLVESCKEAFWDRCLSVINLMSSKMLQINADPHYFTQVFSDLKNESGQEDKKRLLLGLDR
Description: as §1

[7] = target: Flt3(h) (Homo sapiens, UniProt P36888)
Chain of Flt3(h) (P36888 27-993): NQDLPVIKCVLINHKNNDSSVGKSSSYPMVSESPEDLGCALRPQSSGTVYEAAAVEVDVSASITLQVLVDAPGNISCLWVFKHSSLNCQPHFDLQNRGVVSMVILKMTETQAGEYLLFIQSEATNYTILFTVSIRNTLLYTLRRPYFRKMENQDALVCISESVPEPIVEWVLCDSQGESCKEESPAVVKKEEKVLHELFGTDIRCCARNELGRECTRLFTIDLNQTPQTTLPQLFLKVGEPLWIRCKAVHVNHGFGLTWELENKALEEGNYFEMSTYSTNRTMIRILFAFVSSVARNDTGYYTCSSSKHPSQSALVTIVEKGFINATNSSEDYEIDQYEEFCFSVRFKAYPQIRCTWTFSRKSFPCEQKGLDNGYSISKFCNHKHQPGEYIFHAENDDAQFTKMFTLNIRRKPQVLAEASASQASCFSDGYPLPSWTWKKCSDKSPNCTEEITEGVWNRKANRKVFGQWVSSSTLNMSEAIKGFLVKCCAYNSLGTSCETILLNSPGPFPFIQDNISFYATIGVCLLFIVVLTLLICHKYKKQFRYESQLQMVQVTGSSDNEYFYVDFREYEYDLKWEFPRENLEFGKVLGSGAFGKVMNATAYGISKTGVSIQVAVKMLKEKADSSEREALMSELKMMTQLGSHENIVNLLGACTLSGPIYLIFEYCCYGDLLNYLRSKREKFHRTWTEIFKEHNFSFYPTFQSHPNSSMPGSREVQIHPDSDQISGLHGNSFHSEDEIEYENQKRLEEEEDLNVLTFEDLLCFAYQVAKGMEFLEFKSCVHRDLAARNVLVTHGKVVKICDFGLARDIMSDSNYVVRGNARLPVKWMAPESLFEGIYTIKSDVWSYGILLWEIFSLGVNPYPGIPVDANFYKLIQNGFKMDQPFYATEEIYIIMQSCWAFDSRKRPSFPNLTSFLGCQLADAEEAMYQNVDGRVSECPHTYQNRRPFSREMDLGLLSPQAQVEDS
Description: as §1

[8] = target: JNK2α2(h) (Homo sapiens, UniProt P45984)
Description: as §1

[9] = target: PKG1β(h) (Homo sapiens, UniProt Q13976)
Description: as §1

[10] = target: FAK(h) (Homo sapiens, UniProt Q05397)
Description: as §1

[11] = target: PKCδ(h) (Homo sapiens, UniProt Q05655)
Description: as §1

[12] = target: PKG1α(h) (Homo sapiens, UniProt Q13976)
Description: as §1

[13] = target: PKCα(h) (Homo sapiens, UniProt P17252)
Description: as §1

[14] = target: Pim-3(h) (Homo sapiens, UniProt Q86V86)
Description: as §1

[15] = target: JAK3(h) (Homo sapiens, UniProt P52333)
Description: as §1

[16] = target: Aurora-C(h) (Homo sapiens, UniProt Q9UQB9)
Description: as §1

[17] = target: PDK1(h) (Homo sapiens, UniProt O15530)
Description: as §1

[18] = target: CaMKIIδ(h) (Homo sapiens, UniProt Q13557)
Description: as §1

[19] = target: FGFR1(h) (Homo sapiens, UniProt P11362)
Chain of FGFR1(h) (P11362 22-822): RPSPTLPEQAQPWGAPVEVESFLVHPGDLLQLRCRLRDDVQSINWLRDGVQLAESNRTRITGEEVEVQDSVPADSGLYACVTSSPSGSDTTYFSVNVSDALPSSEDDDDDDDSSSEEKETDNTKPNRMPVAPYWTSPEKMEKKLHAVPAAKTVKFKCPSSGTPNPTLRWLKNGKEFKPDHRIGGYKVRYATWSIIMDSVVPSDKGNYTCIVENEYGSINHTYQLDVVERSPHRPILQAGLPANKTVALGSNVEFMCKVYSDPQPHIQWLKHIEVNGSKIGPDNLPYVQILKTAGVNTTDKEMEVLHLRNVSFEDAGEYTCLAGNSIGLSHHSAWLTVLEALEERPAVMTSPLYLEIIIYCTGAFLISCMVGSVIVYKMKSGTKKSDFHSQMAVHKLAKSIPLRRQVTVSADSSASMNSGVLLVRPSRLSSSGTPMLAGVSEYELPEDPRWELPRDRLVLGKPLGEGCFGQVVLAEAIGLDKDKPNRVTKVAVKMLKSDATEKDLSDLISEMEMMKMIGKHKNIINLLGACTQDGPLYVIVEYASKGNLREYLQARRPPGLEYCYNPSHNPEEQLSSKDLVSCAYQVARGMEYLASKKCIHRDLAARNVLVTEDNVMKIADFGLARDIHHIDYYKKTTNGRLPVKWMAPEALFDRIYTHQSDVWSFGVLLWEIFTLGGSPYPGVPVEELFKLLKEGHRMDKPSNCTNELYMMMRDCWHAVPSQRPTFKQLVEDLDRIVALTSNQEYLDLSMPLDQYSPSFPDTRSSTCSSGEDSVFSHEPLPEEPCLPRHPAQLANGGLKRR
Description: as §1

[20] = target: GSK3α(h) (Homo sapiens, UniProt P49840)
Chain of GSK3α(h) (P49840 whole entry): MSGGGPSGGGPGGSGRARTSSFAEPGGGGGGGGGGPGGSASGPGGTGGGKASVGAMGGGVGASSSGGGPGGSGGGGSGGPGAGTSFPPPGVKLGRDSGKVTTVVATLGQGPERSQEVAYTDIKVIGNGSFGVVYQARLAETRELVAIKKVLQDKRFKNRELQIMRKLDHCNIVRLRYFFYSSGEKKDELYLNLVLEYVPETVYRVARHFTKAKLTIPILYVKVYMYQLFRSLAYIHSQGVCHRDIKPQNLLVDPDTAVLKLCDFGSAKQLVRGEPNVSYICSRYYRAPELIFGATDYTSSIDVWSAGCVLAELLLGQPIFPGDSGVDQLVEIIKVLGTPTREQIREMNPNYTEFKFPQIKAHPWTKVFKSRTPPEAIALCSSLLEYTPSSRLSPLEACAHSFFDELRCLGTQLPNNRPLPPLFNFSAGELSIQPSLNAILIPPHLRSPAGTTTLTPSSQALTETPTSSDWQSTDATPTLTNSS
Description: as §1

[21] = target: CaMKIIα(h) (Homo sapiens, UniProt Q9UQM7)
Description: as §1

[22] = target: PAK2(h) (Homo sapiens, UniProt Q13177)
Description: as §1

[23] = target: cKit(h) (Homo sapiens, UniProt P10721)
Description: as §1

[24] = target: PI3 Kinase (p110a/p85a)(h) (Homo sapiens, UniProt P42336)
Description: as §1

[25] = target: CaMKIV(h) (Homo sapiens, UniProt Q16566)
Chain of CaMKIV(h) (Q16566 whole entry): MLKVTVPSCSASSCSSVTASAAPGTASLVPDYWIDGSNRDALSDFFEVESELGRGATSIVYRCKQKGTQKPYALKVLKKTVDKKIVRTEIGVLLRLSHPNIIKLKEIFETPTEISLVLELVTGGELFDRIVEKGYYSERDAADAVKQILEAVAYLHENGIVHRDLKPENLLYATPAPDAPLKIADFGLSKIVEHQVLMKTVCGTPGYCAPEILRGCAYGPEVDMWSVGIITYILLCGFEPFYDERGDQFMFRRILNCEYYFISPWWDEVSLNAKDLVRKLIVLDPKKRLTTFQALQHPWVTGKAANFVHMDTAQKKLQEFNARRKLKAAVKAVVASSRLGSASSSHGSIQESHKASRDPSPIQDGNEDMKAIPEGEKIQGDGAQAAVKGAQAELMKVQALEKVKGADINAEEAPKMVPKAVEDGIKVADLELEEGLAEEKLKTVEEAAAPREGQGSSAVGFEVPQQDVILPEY
Description: as §1

[26] = target: PKBγ(h) (Homo sapiens, UniProt Q9Y243)
Description: as §1

[27] = target: PDGFRβ(h) (Homo sapiens, UniProt P09619)
Description: as §1

[28] = target: Arg(h) (Homo sapiens, UniProt P42684)
Description: as §1

[29] = target: JAK2(h) (Homo sapiens, UniProt O60674)
Description: as §1

[30] = target: CaMKI(h) (Homo sapiens, UniProt Q14012)
Description: as §1

[31] = target: AMPKα1(h) (Homo sapiens, UniProt Q13131)
Chain of AMPKα1(h) (Q13131 whole entry): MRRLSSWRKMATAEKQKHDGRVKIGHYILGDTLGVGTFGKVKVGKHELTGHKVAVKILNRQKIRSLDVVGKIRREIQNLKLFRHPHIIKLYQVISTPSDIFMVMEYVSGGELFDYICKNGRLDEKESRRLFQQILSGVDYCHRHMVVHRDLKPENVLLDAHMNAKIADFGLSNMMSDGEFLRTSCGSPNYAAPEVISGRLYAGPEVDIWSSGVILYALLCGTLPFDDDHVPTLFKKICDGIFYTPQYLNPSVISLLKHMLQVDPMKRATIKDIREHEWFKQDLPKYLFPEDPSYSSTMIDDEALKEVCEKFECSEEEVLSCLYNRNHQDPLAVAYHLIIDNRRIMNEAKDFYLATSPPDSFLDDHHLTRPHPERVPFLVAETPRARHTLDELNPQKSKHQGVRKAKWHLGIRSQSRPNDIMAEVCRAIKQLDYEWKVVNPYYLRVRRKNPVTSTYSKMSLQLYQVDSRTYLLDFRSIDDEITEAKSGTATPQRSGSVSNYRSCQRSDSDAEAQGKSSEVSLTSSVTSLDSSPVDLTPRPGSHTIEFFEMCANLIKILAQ
Chain of AMPKα1(h) (Q9Y478 whole entry partner): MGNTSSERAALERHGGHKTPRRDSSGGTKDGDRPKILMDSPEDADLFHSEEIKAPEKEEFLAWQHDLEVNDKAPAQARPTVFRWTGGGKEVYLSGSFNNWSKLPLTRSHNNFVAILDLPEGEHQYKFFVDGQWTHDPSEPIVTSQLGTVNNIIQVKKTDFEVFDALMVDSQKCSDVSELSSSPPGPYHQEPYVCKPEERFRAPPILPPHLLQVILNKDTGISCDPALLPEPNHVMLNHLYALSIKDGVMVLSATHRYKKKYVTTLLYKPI
Chain of AMPKα1(h) (P54619 whole entry partner): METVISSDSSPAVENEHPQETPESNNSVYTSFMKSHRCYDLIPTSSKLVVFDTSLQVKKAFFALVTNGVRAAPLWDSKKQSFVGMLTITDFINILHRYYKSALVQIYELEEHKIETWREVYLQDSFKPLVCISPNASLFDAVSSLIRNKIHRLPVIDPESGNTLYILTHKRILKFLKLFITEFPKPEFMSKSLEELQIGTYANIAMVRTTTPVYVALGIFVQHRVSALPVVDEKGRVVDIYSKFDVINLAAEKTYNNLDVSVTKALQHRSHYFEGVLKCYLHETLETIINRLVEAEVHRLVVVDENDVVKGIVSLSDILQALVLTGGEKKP
Description: as §1

[32] = target: CaMKIIβ(h) (Homo sapiens, UniProt Q13554)
Description: as §1

[33] = target: CDK2/cyclinE(h) (Homo sapiens, UniProt P24941)
Description: as §1

[34] = target: mTOR(h) (Homo sapiens, UniProt P42345)
Description: as §1

[35] = target: Pim-1(h) (Homo sapiens, UniProt P11309)
Description: as §1

Compound: NCCNc1cccc(-c2ccnc3[nH]c4ccccc4c23)c1 [AS283]
- residual kinase activity, Ret(h) [1]: 44 percentage of maximal activity
- residual kinase activity, SAPK2a(h) [2]: 95 percentage of maximal activity
- residual kinase activity, MAPK1(h) [3]: 102 percentage of maximal activity
- residual kinase activity, GSK3β(h) [4]: 87 percentage of maximal activity
- residual kinase activity, CaMKIIγ(h) [5]: 2 percentage of maximal activity
- residual kinase activity, CDK5/p35(h) [6]: 33 percentage of maximal activity
- residual kinase activity, Flt3(h) [7]: 3 percentage of maximal activity
- residual kinase activity, JNK2α2(h) [8]: 82 percentage of maximal activity
- residual kinase activity, PKG1β(h) [9]: 38 percentage of maximal activity
- residual kinase activity, FAK(h) [10]: 68 percentage of maximal activity
- residual kinase activity, PKCδ(h) [11]: 39 percentage of maximal activity
- residual kinase activity, PKG1α(h) [12]: 48 percentage of maximal activity
- residual kinase activity, PKCα(h) [13]: 49 percentage of maximal activity
- residual kinase activity, Pim-3(h) [14]: 97 percentage of maximal activity
- residual kinase activity, JAK3(h) [15]: 92 percentage of maximal activity
- residual kinase activity, Aurora-C(h) [16]: 63 percentage of maximal activity
- residual kinase activity, PDK1(h) [17]: 78 percentage of maximal activity
- residual kinase activity, CaMKIIδ(h) [18]: 2 percentage of maximal activity
- residual kinase activity, FGFR1(h) [19]: 58 percentage of maximal activity
- residual kinase activity, GSK3α(h) [20]: 82 percentage of maximal activity
- residual kinase activity, CaMKIIα(h) [21]: 3 percentage of maximal activity
- residual kinase activity, PAK2(h) [22]: 76 percentage of maximal activity
- residual kinase activity, cKit(h) [23]: 50 percentage of maximal activity
- residual kinase activity, PI3 Kinase (p110a/p85a)(h) [24]: 100 percentage of maximal activity
- residual kinase activity, CaMKIV(h) [25]: 90 percentage of maximal activity
- residual kinase activity, PKBγ(h) [26]: 42 percentage of maximal activity
- residual kinase activity, PDGFRβ(h) [27]: 111 percentage of maximal activity
- residual kinase activity, Arg(h) [28]: 96 percentage of maximal activity
- residual kinase activity, JAK2(h) [29]: 121 percentage of maximal activity
- residual kinase activity, CaMKI(h) [30]: 107 percentage of maximal activity
- residual kinase activity, AMPKα1(h) [31]: 70 percentage of maximal activity
- residual kinase activity, CaMKIIβ(h) [32]: 5 percentage of maximal activity
- residual kinase activity, CDK2/cyclinE(h) [33]: 41 percentage of maximal activity
- residual kinase activity, mTOR(h) [34]: 115 percentage of maximal activity
- residual kinase activity, Pim-1(h) [35]: 50 percentage of maximal activity
